Assay results taken from the supplement of paper PMC10307832.

How the values were obtained:
Test in all cases: relative viability (nuclei count vs DMSO), 5 days (fraction); higher = more cells survive
201T = tested on: 201T
Outline: (§1)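 Values are medians from duplicate plates. Each reflects relative viability, defined as the nuclei count of treated wells over that of vehicle wells. Lung cancer cell lines in 1536-well plates were pin-tool dosed one day after seeding with one drug alone or with a fixed anchor-drug dose plus five library-drug doses (not always all listed) in √10 steps, then fixed, stained and imaged at 4× after 5 days.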

A-427 = tested on: A-427
Outline: as §1

H3255 = tested on: H3255
Outline: as §1

HCC-44 = tested on: HCC-44
Outline: as §1

LC-2-ad = tested on: LC-2-ad
Outline: as §1

LCLC-103H = tested on: LCLC-103H
Outline: as §1

LCLC-97TM1 = tested on: LCLC-97TM1
Outline: as §1

LK-2 = tested on: LK-2
Outline: as §1

LU99A = tested on: LU99A
Outline: as §1

NCI-H1793 = tested on: NCI-H1793
Outline: as §1

NCI-H2347 = tested on: NCI-H2347
Outline: as §1

NCI-H23 = tested on: NCI-H23
Outline: as §1

NCI-H460 = tested on: NCI-H460
Outline: as §1

NCI-H596 = tested on: NCI-H596
Outline: as §1

NCI-H727 = tested on: NCI-H727
Outline: as §1

PC-14 = tested on: PC-14
Outline: as §1

SW 900 = tested on: SW 900
Outline: as §1

CC(=O)O[C@@]12CO[C@@H]1C[C@H](O)[C@@]1(C)C(=O)[C@H](O)C3=C(C)[C@@H](OC(=O)[C@H](O)[C@@H](NC(=O)OC(C)(C)C)c4ccccc4)C[C@@](O)([C@@H](OC(=O)c4ccccc4)[C@H]21)C3(C)C [Docetaxel] + NC(=O)Nc1cc(-c2cccc(F)c2)sc1C(=O)N[C@H]1CCCNC1 [AZD7762] (partner 0.2 µM)
relative viability (201T; first compound 0.0002 µM): 0.528
relative viability (201T; first compound 0.000632 µM): 0.623
relative viability (201T; first compound 0.002 µM): 0.481
relative viability (201T; first compound 0.006325 µM): 0.388
relative viability (201T; first compound 0.02 µM): 0.246
relative viability (A-427; first compound 0.0002 µM): 0.729
relative viability (A-427; first compound 0.000632 µM): 0.768
relative viability (A-427; first compound 0.002 µM): 0.461
relative viability (A-427; first compound 0.006325 µM): 0.266
relative viability (A-427; first compound 0.02 µM): 0.222
relative viability (H3255; first compound 0.0002 µM): 0.749
relative viability (H3255; first compound 0.000632 µM): 0.859
relative viability (H3255; first compound 0.002 µM): 0.446
relative viability (H3255; first compound 0.006325 µM): 0.288
relative viability (H3255; first compound 0.02 µM): 0.288
relative viability (HCC-44; first compound 0.0002 µM): 1.06
relative viability (HCC-44; first compound 0.000632 µM): 1.07
relative viability (HCC-44; first compound 0.002 µM): 1.07
relative viability (HCC-44; first compound 0.006325 µM): 0.525
relative viability (HCC-44; first compound 0.02 µM): 0.497
relative viability (LC-2-ad; first compound 0.0002 µM): 0.8
relative viability (LC-2-ad; first compound 0.000632 µM): 0.353
relative viability (LC-2-ad; first compound 0.002 µM): 0.224
relative viability (LC-2-ad; first compound 0.006325 µM): 0.274
relative viability (LC-2-ad; first compound 0.02 µM): 0.178
relative viability (LCLC-103H; first compound 0.0002 µM): 0.771
relative viability (LCLC-103H; first compound 0.000632 µM): 0.826
relative viability (LCLC-103H; first compound 0.002 µM): 0.654
relative viability (LCLC-103H; first compound 0.006325 µM): 0.508
relative viability (LCLC-103H; first compound 0.02 µM): 0.372
relative viability (LCLC-97TM1; first compound 0.0002 µM): 0.194
relative viability (LCLC-97TM1; first compound 0.000632 µM): 0.221
relative viability (LCLC-97TM1; first compound 0.002 µM): 0.078
relative viability (LCLC-97TM1; first compound 0.006325 µM): 0.0825
relative viability (LCLC-97TM1; first compound 0.02 µM): 0.0475
relative viability (LK-2; first compound 0.0002 µM): 0.337
relative viability (LK-2; first compound 0.000632 µM): 0.277
relative viability (LK-2; first compound 0.002 µM): 0.113
relative viability (LK-2; first compound 0.006325 µM): 0.112
relative viability (LK-2; first compound 0.02 µM): 0.0712
relative viability (LU99A; first compound 0.0002 µM): 0.328
relative viability (LU99A; first compound 0.000632 µM): 0.253
relative viability (LU99A; first compound 0.002 µM): 0.194
relative viability (LU99A; first compound 0.006325 µM): 0.228
relative viability (LU99A; first compound 0.02 µM): 0.104
relative viability (NCI-H1793; first compound 0.0002 µM): 0.369
relative viability (NCI-H1793; first compound 0.000632 µM): 0.381
relative viability (NCI-H1793; first compound 0.002 µM): 0.299
relative viability (NCI-H1793; first compound 0.006325 µM): 0.204
relative viability (NCI-H1793; first compound 0.02 µM): 0.144
relative viability (NCI-H2347; first compound 0.0002 µM): 0.697
relative viability (NCI-H2347; first compound 0.000632 µM): 0.583
relative viability (NCI-H2347; first compound 0.002 µM): 0.434
relative viability (NCI-H2347; first compound 0.006325 µM): 0.395
relative viability (NCI-H2347; first compound 0.02 µM): 0.268
relative viability (NCI-H23; first compound 0.0002 µM): 0.241
relative viability (NCI-H23; first compound 0.000632 µM): 0.246
relative viability (NCI-H23; first compound 0.002 µM): 0.136
relative viability (NCI-H23; first compound 0.006325 µM): 0.148
relative viability (NCI-H23; first compound 0.02 µM): 0.103
relative viability (NCI-H460; first compound 0.0002 µM): 0.565
relative viability (NCI-H460; first compound 0.000632 µM): 0.575
relative viability (NCI-H460; first compound 0.002 µM): 0.167
relative viability (NCI-H460; first compound 0.006325 µM): 0.0571
relative viability (NCI-H460; first compound 0.02 µM): 0.0404
relative viability (NCI-H596; first compound 0.0002 µM): 1.07
relative viability (NCI-H596; first compound 0.000632 µM): 0.934
relative viability (NCI-H596; first compound 0.002 µM): 1
relative viability (NCI-H596; first compound 0.006325 µM): 0.581
relative viability (NCI-H596; first compound 0.02 µM): 0.397
relative viability (NCI-H727; first compound 0.0002 µM): 0.482
relative viability (NCI-H727; first compound 0.000632 µM): 0.537
relative viability (NCI-H727; first compound 0.002 µM): 0.503
relative viability (NCI-H727; first compound 0.006325 µM): 0.452
relative viability (NCI-H727; first compound 0.02 µM): 0.381
relative viability (PC-14; first compound 0.0002 µM): 0.322
relative viability (PC-14; first compound 0.000632 µM): 0.337
relative viability (PC-14; first compound 0.002 µM): 0.132
relative viability (PC-14; first compound 0.006325 µM): 0.0705
relative viability (PC-14; first compound 0.02 µM): 0.0363
relative viability (SW 900; first compound 0.0002 µM): 0.452
relative viability (SW 900; first compound 0.000632 µM): 0.234
relative viability (SW 900; first compound 0.002 µM): 0.287
relative viability (SW 900; first compound 0.006325 µM): 0.235
relative viability (SW 900; first compound 0.02 µM): 0.161

Cc1sc2c(c1C)C(c1ccc(Cl)cc1)=N[C@@H](CC(=O)OC(C)(C)C)c1nnc(C)n1-2 [JQ1] + NC(=O)Nc1cc(-c2cccc(F)c2)sc1C(=O)N[C@H]1CCCNC1 [AZD7762] (partner 0.2 µM)
relative viability (201T; first compound 0.04 µM): 0.716
relative viability (201T; first compound 0.4 µM): 0.7
relative viability (201T; first compound 1.265 µM): 0.498
relative viability (201T; first compound 4 µM): 0.393
relative viability (A-427; first compound 0.04 µM): 0.749
relative viability (A-427; first compound 0.1265 µM): 0.611
relative viability (A-427; first compound 0.4 µM): 0.594
relative viability (A-427; first compound 1.265 µM): 0.516
relative viability (A-427; first compound 4 µM): 0.416
relative viability (H3255; first compound 0.04 µM): 0.851
relative viability (H3255; first compound 0.1265 µM): 0.67
relative viability (H3255; first compound 0.4 µM): 0.71
relative viability (H3255; first compound 1.265 µM): 0.411
relative viability (H3255; first compound 4 µM): 0.277
relative viability (HCC-44; first compound 0.04 µM): 0.987
relative viability (HCC-44; first compound 0.1265 µM): 1.14
relative viability (HCC-44; first compound 0.4 µM): 1.06
relative viability (HCC-44; first compound 1.265 µM): 1.09
relative viability (HCC-44; first compound 4 µM): 0.76
relative viability (LC-2-ad; first compound 0.04 µM): 0.793
relative viability (LC-2-ad; first compound 0.1265 µM): 0.42
relative viability (LC-2-ad; first compound 0.4 µM): 0.374
relative viability (LC-2-ad; first compound 1.265 µM): 0.249
relative viability (LC-2-ad; first compound 4 µM): 0.204
relative viability (LCLC-103H; first compound 0.04 µM): 0.778
relative viability (LCLC-103H; first compound 0.1265 µM): 0.713
relative viability (LCLC-103H; first compound 0.4 µM): 0.701
relative viability (LCLC-103H; first compound 1.265 µM): 0.492
relative viability (LCLC-103H; first compound 4 µM): 0.438
relative viability (LCLC-97TM1; first compound 0.04 µM): 0.269
relative viability (LCLC-97TM1; first compound 0.1265 µM): 0.255
relative viability (LCLC-97TM1; first compound 0.4 µM): 0.268
relative viability (LCLC-97TM1; first compound 1.265 µM): 0.097
relative viability (LCLC-97TM1; first compound 4 µM): 0.0653
relative viability (LK-2; first compound 0.04 µM): 0.464
relative viability (LK-2; first compound 0.1265 µM): 0.388
relative viability (LK-2; first compound 0.4 µM): 0.229
relative viability (LK-2; first compound 1.265 µM): 0.101
relative viability (LK-2; first compound 4 µM): 0.128
relative viability (LU99A; first compound 0.04 µM): 0.443
relative viability (LU99A; first compound 0.4 µM): 0.271
relative viability (LU99A; first compound 1.265 µM): 0.165
relative viability (LU99A; first compound 4 µM): 0.172
relative viability (NCI-H1793; first compound 0.04 µM): 0.482
relative viability (NCI-H1793; first compound 0.1265 µM): 0.395
relative viability (NCI-H1793; first compound 0.4 µM): 0.824
relative viability (NCI-H1793; first compound 1.265 µM): 0.556
relative viability (NCI-H1793; first compound 4 µM): 0.459
relative viability (NCI-H2347; first compound 0.04 µM): 0.811
relative viability (NCI-H2347; first compound 0.1265 µM): 0.917
relative viability (NCI-H2347; first compound 0.4 µM): 0.724
relative viability (NCI-H2347; first compound 1.265 µM): 0.445
relative viability (NCI-H2347; first compound 4 µM): 0.357
relative viability (NCI-H23; first compound 0.04 µM): 0.208
relative viability (NCI-H23; first compound 0.1265 µM): 0.21
relative viability (NCI-H23; first compound 0.4 µM): 0.215
relative viability (NCI-H23; first compound 1.265 µM): 0.127
relative viability (NCI-H23; first compound 4 µM): 0.105
relative viability (NCI-H460; first compound 0.04 µM): 0.594
relative viability (NCI-H460; first compound 0.1265 µM): 0.327
relative viability (NCI-H460; first compound 0.4 µM): 0.644
relative viability (NCI-H460; first compound 1.265 µM): 0.443
relative viability (NCI-H460; first compound 4 µM): 0.106
relative viability (NCI-H596; first compound 0.04 µM): 1.02
relative viability (NCI-H596; first compound 0.1265 µM): 0.898
relative viability (NCI-H596; first compound 0.4 µM): 0.704
relative viability (NCI-H596; first compound 1.265 µM): 0.632
relative viability (NCI-H596; first compound 4 µM): 0.373
relative viability (NCI-H727; first compound 0.04 µM): 0.735
relative viability (NCI-H727; first compound 0.1265 µM): 0.61
relative viability (NCI-H727; first compound 0.4 µM): 0.539
relative viability (NCI-H727; first compound 1.265 µM): 0.436
relative viability (NCI-H727; first compound 4 µM): 0.405
relative viability (PC-14; first compound 0.04 µM): 0.267
relative viability (PC-14; first compound 0.1265 µM): 0.259
relative viability (PC-14; first compound 0.4 µM): 0.207
relative viability (PC-14; first compound 1.265 µM): 0.125
relative viability (PC-14; first compound 4 µM): 0.0805
relative viability (SW 900; first compound 0.04 µM): 0.562
relative viability (SW 900; first compound 0.1265 µM): 0.556
relative viability (SW 900; first compound 0.4 µM): 0.309
relative viability (SW 900; first compound 1.265 µM): 0.2
relative viability (SW 900; first compound 4 µM): 0.147
